Measurements taken from paper PMC13086964, “USP7 deubiquitinase stabilizes FAN1 to support DNA crosslink repair and suppress CAG repeat expansion” (Nature Communications, 2026).
One block for each compound: values may come before it. Where a SMILES comes first, the peptide text is derived from it. The star is where a group is joined. Cbz = O=C(OCc1ccccc1)*

Assays:
[1] = test system: GFP-FAN1; experiment: cycloheximide chase, FAN1 protein half-life; type: cell-based, human; conditions: U2OS eGFP-FAN1 cells, CHX 100 μg/ml, n = 3
Procedure: If not stated otherwise, cells were lysed in RIPA buffer (50 mM Tris-HCl, pH 7.5, 150 mM NaCl, 1% IGEPAL, 0.5% sodium deoxycholate, 0.1% SDS) supplemented with phosphatase inhibitors (20 mM NaF and 1 mM Na3VO4) and protease inhibitors (1 mM benzamidine and 0.1 mM PMSF), incubated with Benzonase (Merck) for at least 30 min at 4 °C, and clarified by centrifugation. Proteins were resolved by SDS-PAGE and transferred to nitrocellulose membranes. Immunoblots were performed with the indicated antibodies, and proteins were visualized using the Advansta WesternBright ECL reagent and the Fusion Solo S imaging system. Relative protein levels were determined by quantification of the protein of interest band intensity normalized to the loading control with the ImageJ software. […]
were determined by quantification of FAN1 band intensity (normalized to α-Tubulin) with the ImageJ software. […] 24 h post induction, cells were either mock-treated or treated with CHX (100 μg/ml) for the indicated time points and whole-cell lysates were analysed by immunoblotting (top panel). Relative GFP-FAN1 protein levels were determined by quantification of GFP-FAN1 band intensity (normalized to GAPDH) with the ImageJ software (bottom panel; siCtrl: black square; siUSP7#1: blue triangle; siUSP7#2: cyan inverted triangle). […] Inputs and recovered protein complexes were analysed by immunoblotting. […]

[2] = test system: GFP-FAN1 protein level; experiment: immunoblot of GFP-FAN1 protein levels, U2OS eGFP-FAN1 cells; type: cell-based, human; conditions: USP7-depleted U2OS eGFP-FAN1 cells, MG-132 10 μM for 6 h
Procedure: (§1) Fig. 3 USP7 deubiquitinates FAN1 controlling its protein levels. A RPE-1 parental and p53 KO cell lines were transfected with either non-targeting (Ctrl) or USP7 siRNA oligos. 48 h later, whole-cell lysates were analysed by immunoblotting. B Doxycycline-inducible U2OS^eGFP-FAN1 cells were transfected with either non-targeting (Ctrl) or USP7 siRNA oligos. 24 h later, GFP-FAN1 expression was induced with Dox (100 ng/ml) for 24 h and whole-cell lysates were analysed by immunoblotting. C Same cells as in B were induced with Dox (100 ng/ml). 24 h later, cells were either mock-treated with DMSO (–) or treated (+) with either FT671 or GNE-6640 (10 μM) for 24 h and whole-cell lysates were analysed by immunoblotting. D Same cells as in B were transfected with either non-targeting (Ctrl) or USP7 siRNA oligos. […] 24 h post induction, cells were either mock-treated (−) or treated (+) with MG-132 (10 μM) for 6 h and whole-cell lysates were analysed by immunoblotting. […] 24 h post induction, whole-cell lysates were analysed by immunoblotting. […] Inputs and recovered protein complexes were analysed by immunoblotting. […] Inputs and recovered protein complexes were analysed by immunoblotting. […] In (A–E), relative FAN1 protein levels were determined by quantification of FAN1 band intensity (normalized to GAPDH or Lamin B1 loading controls) with the ImageJ software. […]

[3] = test system: FAN1 protein level; experiment: immunoblot of FAN1 protein levels, RPE-1 cells; type: cell-based, human; conditions: USP7-depleted RPE-1 cells, MG-132 10 μM for 6 h
Procedure: as §1

[4] = test system: FAN1; experiment: pull-down of MBP-His-FAN1 by biotin-tagged USP7 fragments; type: binding, human; conditions: biotin-tagged USP7 fragments 6 µg, MBP-His-FAN1 1 µg
Procedure: All plasmids were transformed into BL21(DE3)-pBirAcm cells. The cells were grown using a Large-scale EXpression (LEX) bioreactor at 37 °C. Once OD600 reached 0.7, the temperature was reduced to 15 °C. At OD600 0.8-1, expression of biotinylated proteins was induced by adding 25 mg/L biotin and 0.5 mM isopropyl β-d-1-thiogalactopyranoside (IPTG), and growth continued overnight. Cell cultures were harvested by centrifugation at 6500 g, 10 min, 10 °C (JLA8.1000). Pellets were flash-frozen in liquid nitrogen and stored at −80 °C prior to purification. Cell pellets were thawed, diluted with pre-chilled resuspension buffer (20 mM HEPES pH7.4, 500 mM NaCl, 5% (v/v) glycerol, 1 mM TCEP) and supplemented with 3 μg/ml benzonase, 2 mM MgSO4 and 0.8 mM PMSF/benzamidine-HCl. The mixture was homogenized and lysed by sonication, 60 cycles of 5 s pulse followed by 7.5 s rest. Cell lysates were clarified by centrifugation at 40000 g, 1 hr, 10 °C (JLA16.250). […] Protein purity was analysed by SDS-PAGE and identity was confirmed by mass spectrometry. […]
Transformed clones of chemocompetent BL21 bacteria were picked and inoculated in LB medium supplemented with 50 μg/ml kanamycin, subsequently incubated at 37 °C overnight under agitation at 250 rpm. […] Purity of the protein was assessed by boiling in SDS sample buffer and separating by SDS-PAGE followed by staining using Coomassie Blue. […]

Compound: C[C@@H]1C[C@@H]([C@H](O)CC2CC(=O)NC(=O)C2)C(=O)[C@@H](C)C1 [CHX, cycloheximide]
FAN1 protein half-life [1]: reduced protein half-life

Compound: CC(C)C[C@@H](C=O)NC(=O)[C@H](CC(C)C)NC(=O)[C@H](CC(C)C)NC(=O)OCc1ccccc1 [MG132] (Cbz-Leu-Leu-Leu-aldehyde)
FAN1 levels with proteasome inhibitor [2]: FAN1 levels were restored
FAN1 levels with proteasome inhibitor [3]: FAN1 levels were restored

binding of USP7 domain to FAN1 in vitro [4]: strongest
Compound: TRAF domain: purified recombinant biotin-tagged USP7 fragment
